How the values were obtained:
MOLM14 D835Y cells = assay: MOLM14 D835Y cell viability (Cell Titer Glo); assay type: cell-based; settings: Homo sapiens
Procedure: Both cell lines have activated FLT3 receptors, each of which carry additional resistance mutations in the kinase domain (D835Y and F691L, respectively).
(§1) MOLM14 D835Y and MOLM14 F691L cells were grown in RPMI-1640 media supplemented with 20% fetal bovine serum (FBS). For viability/cytotoxicity assessments, cells were seeded into 1536-well white polystyrene tissue culture-treated Greiner plates using a Multidrop Combi dispenser (ThermoFisher), in final volume 5 μL of growth media per well, at a density of 1000 cells per well. After cell addition, 23 nL of test compound were transferred into individual wells (22 doses tested for each test compound, with a 1:2 dilution series starting at 10 μM) via a 1536 pin-tool. Bortezomib (final concentration 2.3 μM) was used as a positive control for cell cytotoxicity. Plates were incubated for 48 hours at standard incubator conditions covered by a stainless steel gasketed lid to prevent evaporation. 48 hours post compound addition, 3 μL of Cell Titer Glo (Promega) were added to each well and plates were incubated at room temperature for 15 minutes with the stainless-steel lid in place. Luminescence readings were taken using a Viewlux imager (PerkinElmer) with a 2 second exposure time per plate.
This cell line has activated FLT3 receptors, which carries an additional resistance mutation in the kinase domain at D835Y.
as §1, with “D835Y” for “D835Y and MOLM14 F691L”, “mL” for “μL”, “mM)” for “μM)”

IRAK4 = molecular target: T1, IRAK4 (Homo sapiens, UniProt Q9NWZ3); assay: NanoBRET target engagement assay in HEK-293 cells, IRAK4; assay type: cell-based; settings: live HEK-293 cells, 1 h
T1 sequence (Q9NWZ3 1-460): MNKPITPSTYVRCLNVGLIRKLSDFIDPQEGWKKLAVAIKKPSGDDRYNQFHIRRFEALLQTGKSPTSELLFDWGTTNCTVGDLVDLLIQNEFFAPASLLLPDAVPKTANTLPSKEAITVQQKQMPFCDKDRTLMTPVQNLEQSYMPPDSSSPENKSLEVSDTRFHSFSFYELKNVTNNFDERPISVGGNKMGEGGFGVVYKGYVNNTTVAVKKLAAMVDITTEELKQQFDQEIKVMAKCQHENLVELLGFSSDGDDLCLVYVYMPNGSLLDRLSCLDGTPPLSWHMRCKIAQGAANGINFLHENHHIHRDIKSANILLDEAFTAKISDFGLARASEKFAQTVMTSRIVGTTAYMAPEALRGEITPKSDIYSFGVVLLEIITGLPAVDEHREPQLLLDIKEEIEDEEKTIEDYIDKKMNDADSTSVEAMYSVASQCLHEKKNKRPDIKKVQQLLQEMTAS
Description: The NanoBRET assay measures kinase engagement in real time in the context of the intact cell. Unlike the previously described biochemical kinase assay methodology, the NanoBRET assay measures the binding and activity characteristics under equilibrium conditions using full-length kinases in the presence of cellular concentrations of ATP in live, uncompromised cells. As such, the assay provides a more relevant assessment of kinase potency and selectivity that would be expected to be observed in the native cellular environment, where potency is often considerably lower than that observed in the isolated biochemical assays (Vasta, J. D. et al., (2018) Cell Chem. Biol. 25, 206-214). The assay uses a Kinase-NanoLuc® fusion vector expressing a kinase protein to which a luciferase tag has been added, a cell-permeant fluorescent NanoBRET™ tracer, a NanoLuc® substrate, and an extracellular NanoLuc® inhibitor. Upon expression of the luciferase-tagged kinase, cells will produce a strong BRET signal only in the presence of the NanoBRET™ tracer. The extracellular NanoLuc® inhibitor ensures that the BRET signal observed emanates only from live cells. Because the BRET signal has tight distance constraints, addition of the test compound will decrease the BRET signal if the compound competes with the NanoBRET™ tracer for binding to the kinase domain. Under the appropriate tracer conditions established by the manufacturer, quantitative intracellular affinity and relative potency can then be determined using Mass Action model equations.
HEK-293 cells were purchased from ATCC. FuGENEHD Transfection Reagent, Kinase-NanoLucfusion plasmids, Transfection Carrier DNA, NanoBRETTracers and dilution buffer, NanoBRETNano-Glo Substrate, Extracellular NanoLucInhibitor were obtained from Promega.
Assays were conducted following Promega assay protocol with some modifications. HEK-293 Cells were transiently transfected with Kinase-NanoLucFusion Vector DNA by FuGENEHD Transfection Reagent. Testing compounds were delivered into 384 well assay plate by Echo 550 (LabcyteInc, Sunnyvale, CA). Transfected cells were harvested and mixed with NanoBRETTracer Reagent and dispensed into 384 well plates and incubated at 37 °C in 5% CO2 cell culture incubator for 1 hour. The NanoBRETNano-Glo Substrate plus Extracellular NanoLucInhibitor Solution were added into the wells of the assay plate and incubated for 2-3 minutes at room temperature. The donor emission wavelength (460 nm) and acceptor emission wavelength (600 nm) were measured in the En Visionplate reader. The BRET Ratios were calculated.
BRET Ratio=[(Acceptor sample÷Donor sample)−(Acceptor no-tracer control÷Donor no-tracer control)].
The IC50 values of compounds were calculated with Prism GraphPad program.
• 1). Cultivate HEK-293 cells (70-80% confluence) appropriately prior to assay. Trypsinize and collect HEK-293 cells. • 2). Prepare lipid:DNA complexes as follows: • a. Prepare a 10 μg/ml solution of DNA in Opti-MEM without serum that consists of the following ratios of carrier DNA and DNA encoding NanoLuc® fusion. 9.0 μg/mL of Transfection Carrier DNA, 1.0 μg/mL of NanoLuc fusion vector DNA and 1 mL of Opti-MEM without phenol red. Mix thoroughly. • b. Add 30 μl of FuGENE HD Transfection Reagent into each milliliter of DNA mixture to form lipid:DNA complex. • c. Mix by inversion 10 times. • d. Incubate at ambient temperature for 20 minutes to allow complexes to form. • 3). In a sterile, conical tube, mix 1 part of lipid:DNA complex with 20 parts of HEK-293 cells in suspension. Mix gently by inversion 5 times. • 4). Dispense cells+lipid:DNA complex into a sterile tissue culture dish and incubate for 22-24 hours.
Each test compound is delivered from the compound source plate to the wells of 384-well white NBS plate by Echo 550.
3. Preparation of Cells with NanoBRET™ Tracer Reagent • 1). Remove medium from dish with transfected HEK-293 cells via aspiration, trypsinize and allow cells to dissociate from the dish. • 2). […]

Structure (SMILES) | IC50 (MOLM14 D835Y cells; MOLM-14, Table 16, 48 h) [nM] | IC50 (IRAK4; Table 14) [nM] | IC50 (MOLM14 D835Y cells; MOLM-14, Table 22, 48 h) [nM] | IC50 (IRAK4; Table 20) [nM]
COc1cn2ncc(-c3cncc(N[C@H]4CNCC[C@@H]4F)n3)c2nc1C1CC1 [Compound 12a, 6-(5-cyclopropyl-6-methoxypyrazolo[1,5-a]pyrimidin-3-yl)-N-((3S,4S)-4-fluoropiperidin-3-yl)pyrazin-2-amine] |  |  | 12 | < 0.5
COc1cn2ncc(-c3ccc(F)c(N[C@@H]4CCCNC4)n3)c2nc1C1CC1 [Compound 5, (R)-6-(5-cyclopropyl-6-methoxypyrazolo[1,5-a]pyrimidin-3-yl)-3-fluoro-N-(piperidin-3-yl)pyridin-2-amine] | 20 | 3 |  | 
COc1cn2ncc(-c3ccnc(N[C@H]4CNCC[C@@H]4F)n3)c2nc1C(C)(C)O [Compound 3a, 2-(3-(2-(((3S,4S)-4-fluoropiperidin-3-yl)amino)pyrimidin-4-yl)-6-methoxypyrazolo[1,5-a]pyrimidin-5-yl)propan-2-ol] |  |  | 86 | 8
COc1cn2ncc(-c3nc(N[C@@H]4CCCNC4)ccc3F)c2nc1C1CC1 [Compound 2, (R)-6-(5-cyclopropyl-6-methoxypyrazolo[1,5-a]pyrimidin-3-yl)-5-fluoro-N-(piperidin-3-yl)pyridin-2-amine] | 2 |  |  | 
COc1cn2ncc(-c3cccc(N[C@H]4CNC[C@@H]4F)n3)c2nc1C1CC1 [Compound 19, 6-(5-cyclopropyl-6-methoxypyrazolo[1,5-a]pyrimidin-3-yl)-N-((3S,4S)-4-fluoropyrrolidin-3-yl)pyridin-2-amine] | 58 |  |  | 
COc1cn2ncc(-c3cccc(N[C@H]4CNCC[C@@H]4F)n3)c2nc1C1CC1 [Compound 21, 6-(5-cyclopropyl-6-methoxypyrazolo[1,5-a]pyrimidin-3-yl)-N-((3S,4S)-4-fluoropiperidin-3-yl)pyridin-2-amine] | 46 | < 0.5 |  | 
COc1cn2ncc(-c3cccc(N[C@@H]4CCCNC4)n3)c2nc1C1CC1 [Compound 20, (R)-6-(5-cyclopropyl-6-methoxypyrazolo[1,5-a]pyrimidin-3-yl)-N-(piperidin-3-yl)pyridin-2-amine] | 41 |  |  | 
COc1cn2ncc(-c3cncc(N[C@@H]4CCCNC4)n3)c2nc1C1CC1 [Compound 11a, (R)-6-(5-cyclopropyl-6-methoxypyrazolo[1,5-a]pyrimidin-3-yl)-N-(piperidin-3-yl)pyrazin-2-amine] |  |  | 29 | < 0.5
COc1cn2ncc(-c3ccnc(N[C@H]4CNCC[C@@H]4F)n3)c2nc1C1CC1 [Compound 7a, 4-(5-cyclopropyl-6-methoxypyrazolo[1,5-a]pyrimidin-3-yl)-N-((3S,4S)-4-fluoropiperidin-3-yl)pyrimidin-2-amine] |  |  | 7 | 0.8

Other lines, results leading:

IC50 (MOLM14 D835Y cells; MOLM-14, Table 16, 48 h) [nM] | IC50 (IRAK4; Table 14) [nM] | IC50 (MOLM14 D835Y cells; MOLM-14, Table 22, 48 h) [nM] | IC50 (IRAK4; Table 20) [nM] | Structure (SMILES)
2 | < 0.5 |  |  | COc1cn2ncc(-c3nc(N[C@H]4CNCC[C@@H]4F)c(F)cc3F)c2nc1C1CC1 [Compound 22, 6-(5-cyclopropyl-6-methoxypyrazolo[1,5-a]pyrimidin-3-yl)-3,5-difluoro-N-((3S,4S)-4-fluoropiperidin-3-yl)pyridin-2-amine]
13 | < 0.5 |  |  | COc1cn2ncc(-c3nc(N[C@@H]4CCCNC4)c(F)cc3F)c2nc1C(C)(C)O [Compound 11, (R)-2-(3-(3,5-difluoro-6-(piperidin-3-ylamino)pyridin-2-yl)-6-methoxypyrazolo[1,5-a]pyrimidin-5-yl)propan-2-ol]
 |  | 25 | 2 | COc1cn2ncc(-c3nc(N[C@H]4CNC[C@@H]4F)ncc3F)c2nc1C(C)(C)O [Compound 5a, 2-(3-(5-fluoro-2-(((3S,4S)-4-fluoropyrrolidin-3-yl)amino)pyrimidin-4-yl)-6-methoxypyrazolo[1,5-a]pyrimidin-5-yl)propan-2-ol]
 |  | 5 | < 0.5 | COc1cn2ncc(-c3nc(N[C@H]4CNCC[C@@H]4F)ncc3F)c2nc1C(C)(C)O [Compound 6a, 2-(3-(5-fluoro-2-(((3S,4S)-4-fluoropiperidin-3-yl)amino)pyrimidin-4-yl)-6-methoxypyrazolo[1,5-a]pyrimidin-5-yl)propan-2-ol]
32 | < 0.5 |  |  | COc1cn2ncc(-c3nc(N[C@H]4CNC[C@@H]4F)c(F)cc3F)c2nc1C(C)(C)O [Compound 12, 2-(3-(3,5-difluoro-6-(((3S,4S)-4-fluoropyrrolidin-3-yl)amino)pyridin-2-yl)-6-methoxypyrazolo[1,5-a]pyrimidin-5-yl)propan-2-ol]
14 | < 0.5 |  |  | COc1cn2ncc(-c3nc(N[C@H]4CNCC[C@@H]4F)c(F)cc3F)c2nc1C(C)(C)O [Compound 13, 2-(3-(3,5-difluoro-6-(((3S,4S)-4-fluoropiperidin-3-yl)amino)pyridin-2-yl)-6-methoxypyrazolo[1,5-a]pyrimidin-5-yl)propan-2-ol]
16 |  |  |  | COc1cn2ncc(-c3nc(N[C@@H]4CCCNC4)c(C#N)cc3F)c2nc1C(C)(C)O [Compound 9, (R)-5-fluoro-6-(5-(2-hydroxypropan-2-yl)-6-methoxypyrazolo[1,5-a]pyrimidin-3-yl)-2-(piperidin-3-ylamino)nicotinonitrile]
2 |  |  |  | COc1cn2ncc(-c3nc(N[C@H]4CNC[C@@H]4F)c(F)cc3F)c2nc1C1CC1 [Compound 24, 6-(5-cyclopropyl-6-methoxypyrazolo[1,5-a]pyrimidin-3-yl)-3,5-difluoro-N-((3S,4S)-4-fluoropyrrolidin-3-yl)pyridin-2-amine]

— US20260374773A1, “MULTI-CYCLIC IRAK AND FLT3 INHIBITING COMPOUNDS AND USES THEREOF” (CHILDREN'S HOSPITAL MEDICAL CENTER, priority 2022, published 2026)
